Assay [1] concerns MCF-7/Adr drug-resistant human mammary carcinoma cells. The assay is described as follows: Drug resistance, viable cell number (Coulter Counter). It counts as cell-based. The protocol:
(§1) FIG. 15A is a line graph showing that MCF-7/Adr drug-resistant human mammary carcinoma cells grown in culture with hyaluronan oligomers are sensitized to doxorubicin. MCF-7/Adr cells were obtained from MCF-7 cells by being selected for drug resistance by exposure to doxorubicin. Cells were grown for 24 h in 24-well plates in RPMI 1640 medium containing Glutamex 1 plus 10% fetal bovine serum at 37° in 5% CO2. Various concentrations of doxorubicin (doxo) were then added and the cells incubated for another 72 h, followed by a further 24 h in the presence or absence of 100 μg/ml hyaluronan oligomers (o-HA). The oligomers were a mixed population of 3-8 repeating disaccharides in length. The cells were then harvested and the number of viable cells was determined in a Coulter Counter.
FIG. 18 is a set of line graphs showing a resulting cell number, on the ordinate, following drug treatment with doxorubicin, concentration (log) in nM on the abscissa, showing restoration of drug sensitivity (inhibition of drug resistance) by HA oligomers, soluble hyaluronan-binding decoys, and CD44 siRNA, using derivatives of MCF-7 cells as in FIG. 17 above.
Therefore, the effect of co-treatment with hyaluronan oligomers on drug resistance was examined in an established system, i.e. MCF-7/Adr human mammary carcinoma cells that have been selected for resistance to doxorubicin (Fairchild, C. R., et al., Cancer Res 47, 5141-8, 1987). First, the effect of hyaluronan oligomers on resistance to doxorubicin in the MCF-7/Adr cells versus the relatively drug-sensitive, parental MCF-7 cell line was compared.

Assay [2] relates to MCF-7 human mammary carcinoma cells. The description is as above. In kind it is cell-based. The protocol:
as §1

Assay [3] relates to MCF-7 cells infected with Has2, emmprin or β-galactosidase adenovirus. Put plainly: Doxorubicin resistance of recombinant adenovirus-infected MCF-7 cells. In kind it is cell-based, human. The note with it: for IC50: Homo sapiens, MCF7, 48 h, 48 h. The protocol: Untreated MCF-7 cells or cells infected overnight with a recombinant Has2 adenovirus or a control β-galactosidase adenovirus (β-gal) were washed, then treated in culture for 48 h with 1-1000 nM doxorubicin, followed by analysis of cell number.
Cells were treated in culture for 48 h with 10-1000 nM doxorubicin in the presence or absence of 100 μg/ml o-HA and analyzed as in FIG. 16A.
FIG. 16C is a line graph showing doxorubicin response of untreated MCF-7 cells or cells infected overnight with a recombinant emmprin adenovirus or a control β-galactosidase adenovirus (β-gal) that were treated as described in FIG. 16B.
Emmprin adenovirus-infected MCF-7 cells or control β-galactosidase adenovirus (β-gal)-infected cells were treated in the presence or absence of 100 μg/ml hyaluronan oligomers (o-HA) as described in FIG. 16B. The results in FIGS. 16A-D are expressed as the means (±S.D) of three independent experiments performed in triplicate.

In assay [4] the test system is MDA-MB231 human mammary carcinoma cells. The assay is described as follows: Methotrexate resistance, cell number in monolayer culture. In kind it is cell-based. On the procedure: MDA-MB231 human mammary carcinoma cells were treated with increasing concentrations of methotrexate (MTX) in the presence or absence of 100 μg/ml HA oligomers. Cells were grown in monolayer culture in 10% fetal bovine serum and cell number measured in a coulter counter. The MTT assay for viable cells (Denizot, F., et al. J Immunol Methods, 89: 271-277, 1986) gave similar results.
Effect of addition of hyaluronan oligomers on resistance of MDA-MB231 human breast cancer cells to treatment with methotrexate was assessed.

[5] abbreviates: MCF-7/Adr + o-HA (100 μg/ml hyaluronan oligomers).
[6] abbreviates: MCF-7 + o-HA (100 μg/ml hyaluronan oligomers).
The mark [7] stands for this setting: Homo sapiens, NCI/ADR-RES, MCF-7/Adr cells, drug alone.
The mark [8] stands for this setting: Homo sapiens, MCF7, MCF-7 cells, drug alone.

Like-named read-outs stand apart in the source and are kept apart here.

The IC50 is the midpoint of a concentration-inhibition curve. In the case of `O=NN(CCCl)C(=O)NCCCl` [BCNU, 1,3 bis(2-chloroethyl)-1-nitrosurea], the IC50 in assay [1] (setting [5]) worked out at 180 nM; in assay [1] (MCF-7/Adr cells, drug alone), 14000 nM; in assay [2] (setting [6]), 1200 nM; in assay [2] (MCF-7 cells, drug alone), 500 nM.

With `COc1cccc2c1C(=O)c1c(O)c3c(c(O)c1C2=O)C[C@@](O)(C(=O)CO)C[C@@H]3O[C@H]1C[C@H](N)[C@H](O)[C@H](C)O1` [Doxorubicin], in assay [3] (HAS2 adenovirus-infected MCF-7 versus controls), the “increase in resistance to doxorubicin induced by increased hyaluronan production” value is 10-12 fold. Further, the half-maximal inhibitory concentration (IC50) worked out at 210 nM in assay [3] (Has2 adenovirus-infected MCF-7 cells); 18 nM in assay [3] (uninfected MCF-7 cells); 20 nM in assay [3] (β-galactosidase adenovirus-infected MCF-7 cells); 2200 nM in assay [1] (setting [7]); 40 nM in assay [1] (setting [5]); 30 nM in assay [2] (setting [8]). The IC50 in assay [2] (setting [6]) turned out to be 40 nM.

Turning to `CN(Cc1cnc2nc(N)nc(N)c2n1)c1ccc(C(=O)N[C@@H](CCC(=O)O)C(=O)O)cc1` [Methotrexate], the IC50 was about 10 nM in assay [4] (MDA-MB-231, MB231 cells, with 100 μg/ml hyaluronan oligomer (FIG. 12), read-out: IC50); about 1000 nM in assay [4] (MDA-MB-231, MB231 cells, without hyaluronan oligomer (FIG. 12), read-out: IC50); 6 nM in assay [4] (MDA-MB-231, MDA-MB231 + o-HA (100 μg/ml hyaluronan oligomers), read-out: IC50 values); 800 nM in assay [4] (MDA-MB-231, MDA-MB231 cells, drug alone, read-out: IC50 values); 20 nM in assay [2] (setting [8]).

Consider `CC(=O)O[C@H]1C(=O)[C@@]2(C)[C@H]([C@H](OC(=O)c3ccccc3)[C@]3(O)C[C@H](OC(=O)[C@H](O)[C@@H](NC(=O)c4ccccc4)c4ccccc4)C(C)=C1C3(C)C)[C@]1(OC(C)=O)CO[C@@H]1C[C@@H]2O` [Taxol], for which the IC50 came to 700 nM in assay [1] (setting [7]), 60 nM in assay [1] (setting [5]) and 350 nM in assay [2] (setting [8]).

`CC[C@]1(O)C[C@H]2CN(CCc3c([nH]c4ccccc34)[C@@](C(=O)OC)(c3cc4c(cc3OC)N(C=O)[C@H]3[C@@](O)(C(=O)OC)[C@H](OC(C)=O)[C@]5(CC)C=CCN6CC[C@]43[C@@H]65)C2)C1` [Vincristine]: the IC50 in assay [1] (setting [7]) worked out at 200 nM; in assay [1] (setting [5]), 20 nM; in assay [2] (setting [8]), 30 nM.

The values above are taken from patent US8648047B2, “Methods and compositions for inhibition of multi-drug resistance by hyaluronan oligomers” (Tufts University, priority 2002, dated 2014).
